Measurements as given in ChEMBL document CHEMBL1201862, “PubChem BioAssay data set” (2004).
Calls of active or inactive are those of the source.

Assays:
[1] = NIH-3T3 fibroblast cytotoxicity, dose response, cytotoxicity control, cell-based, fluorescence, Alamar Blue, secondary assay (AID 2327); format: functional;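 further: NIH-3T3 mouse fibroblasts cultured with fluconazole at 8 µg/mL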
[2] = molecular target: Serine/threonine-protein phosphatase (Candida dubliniensis (strain CD36 / CBS 7987 / NCPF 3949 / NRRLY-17841) (Yeast), UniProt B9W6M3); experiment: calcineurin pathway inhibitors in yeast reporter, dose response, S. cerevisiae, CDRE-lacZ, luminescence, secondary (AID 2388); format: functional, cell-based;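 further: yeast reporter cells carrying a calcineurin-responsive lacZ construct stimulated with calcium chloride; luminescent beta-galactosidase reporter signal in whole cells rather than isolated phosphatase activity; potency for inhibition where a drop in reporter signal means calcineurin blockade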
[3] = C. albicans growth with fluconazole, confirmation, fluorescence, retest (AID 2467); format: functional, cell-based
[4] = molecular target: ATP-dependent molecular chaperone HSP82 (Candida albicans (strain WO-1) (Yeast), UniProt C4YTQ8); experiment: loss of DOC-induced GRE-beta-galactosidase reporter signal, dose response, Hsp90 inhibitor project, S. cerevisiae, luminescence (AID 2400); format: functional, cell-based;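 further: beta-galactosidase luminescence from glucocorticoid response element reporter as proxy for Hsp90 function; inhibitor potency where signal loss means Hsp90 inhibition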
Candida albicans [5] = experiment: fluconazole resistance reversal in C. albicans, dose response, CaCi-2 strain, Alamar Blue, dry powder, set 4 (AID 488943); format: functional, organism-based
Candida albicans [6] = experiment: C. albicans growth inhibition with fluconazole, dose response, antifungal resistance reversal project, CaCi-2 strain, Alamar Blue, dry powder, set 2 (AID 488930); format: functional, organism-based
Candida albicans [7] = experiment: Candida albicans growth inhibition, compound alone, dose response, counter-screen for antifungal drug resistance project, CaCi-2 strain, Alamar Blue, dry powder, set 2 (AID 488893); format: functional, organism-based
Candida albicans [8] = experiment: growth inhibition of resistant C. albicans, dose response, CaCi-8 strain, fluconazole, dry powder, set 4 (AID 488950); format: functional, organism-based
Candida albicans [9] = experiment: growth inhibition of azole-resistant C. albicans, dose response, CaCi-8 strain, Alamar Blue, dry powder, set 2 (AID 488909); format: functional, organism-based
[10] = molecular target: Delta-type opioid receptor (Homo sapiens, UniProt P41143); experiment: Counterscreen for agonists of heterodimerization of the mu 1 (OPRM1) and delta 1 (OPRD1) opioid receptors: Luminescence-based cell-based high throughput dose response assay to identify agonists of OPRD1 homodimerization. [Related pubchem assays (depositor defined):AID504326, AID504355, AID504692, AID504904, AID504905]; format: functional
[11] = molecular target: 5-hydroxytryptamine receptor 5A (Homo sapiens, UniProt P47898); experiment: Counterscreen for agonists of OPRM1-OPRD1 heterodimerization: luminescence-based cell-based high throughput dose response assay to identify agonists of 5-hydroxytryptamine (serotonin) 5A receptor (HTR5A). [Related pubchem assays (depositor defined):AID504326, AID504355, AID504692, AID504904, AID504905]; format: functional
Mu-type opioid receptor = Mu-type opioid receptor (Homo sapiens, UniProt P35372); experiment: Counterscreen for agonists of heterodimerization of the mu 1 (OPRM1) and delta 1 (OPRD1) opioid receptors: Luminescence-based cell-based high throughput dose response assay to identify agonists of OPRM1 homodimerization.; format: functional;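 further: U2OS cells expressing OPRM1 and beta-arrestin as split beta-galactosidase partners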
Mu-type opioid receptor, sequence (P35372 whole entry): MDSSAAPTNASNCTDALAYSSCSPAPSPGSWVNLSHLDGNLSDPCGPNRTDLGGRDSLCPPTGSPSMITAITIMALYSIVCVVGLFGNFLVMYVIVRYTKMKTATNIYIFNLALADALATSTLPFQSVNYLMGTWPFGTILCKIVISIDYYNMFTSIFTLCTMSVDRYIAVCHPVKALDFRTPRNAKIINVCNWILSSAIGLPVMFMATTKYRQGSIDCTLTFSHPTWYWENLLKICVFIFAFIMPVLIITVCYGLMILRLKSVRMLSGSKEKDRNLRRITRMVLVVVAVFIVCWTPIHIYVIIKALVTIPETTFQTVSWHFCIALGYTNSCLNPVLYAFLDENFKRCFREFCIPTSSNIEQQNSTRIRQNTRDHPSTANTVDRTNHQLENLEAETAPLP

[12] = molecular target: Luciferin 4-monooxygenase (Photinus pyralis, UniProt P08659); experiment: firefly luciferase enzyme inhibitors, dose response, biochemical, luminescence (AID 1891)
Luciferin 4-monooxygenase, sequence (P08659 whole entry): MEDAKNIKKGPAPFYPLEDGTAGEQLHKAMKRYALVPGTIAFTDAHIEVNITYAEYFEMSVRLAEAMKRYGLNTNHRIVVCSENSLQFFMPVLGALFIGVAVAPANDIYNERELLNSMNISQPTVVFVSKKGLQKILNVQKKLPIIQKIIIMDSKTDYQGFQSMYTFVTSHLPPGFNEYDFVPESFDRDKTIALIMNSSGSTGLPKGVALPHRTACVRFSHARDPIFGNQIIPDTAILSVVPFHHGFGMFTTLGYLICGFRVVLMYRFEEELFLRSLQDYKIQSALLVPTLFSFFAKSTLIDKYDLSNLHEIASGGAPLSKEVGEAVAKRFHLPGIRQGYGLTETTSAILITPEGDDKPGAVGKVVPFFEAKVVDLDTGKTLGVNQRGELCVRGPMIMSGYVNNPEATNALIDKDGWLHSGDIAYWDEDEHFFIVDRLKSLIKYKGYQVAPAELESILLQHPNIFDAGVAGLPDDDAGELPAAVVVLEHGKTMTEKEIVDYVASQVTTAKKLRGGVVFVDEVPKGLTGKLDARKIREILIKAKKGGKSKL

[13] = Luminescence Cell-Based Dose Confirmation HTS to Identify Inhibitors of Platelet Dense Granule Release. [Related pubchem assays: 1663 (Primary HTS), 1678 (Summary of Project)]; format: functional
[14] = blockers of SFLLRN-triggered platelet ATP secretion – cell-based, human platelets, luminescence, dry powder, dose response (AID 493100); format: functional
[15] = Luminescence Cell-Based Dose Response Follow up to Identify Inhibitors of Platelet Dense Granule Release. [Related pubchem assays (depositor defined):AID1663, AID1678, AID2398]; format: functional
[16] = inhibitors of SFLLRN-triggered platelet P-selectin exposure, dose response, cell-based, fluorescence, flow cytometry, human platelets (AID 2511); format: functional
[17] = molecular target: DNA (cytosine-5)-methyltransferase 1 (Homo sapiens, UniProt P26358); experiment: DNMT1 methyltransferase inhibitors, confirmation, biochemical, fluorescent molecular beacon (AID 602386); format: functional
DNA (cytosine-5)-methyltransferase 1, sequence (P26358 whole entry): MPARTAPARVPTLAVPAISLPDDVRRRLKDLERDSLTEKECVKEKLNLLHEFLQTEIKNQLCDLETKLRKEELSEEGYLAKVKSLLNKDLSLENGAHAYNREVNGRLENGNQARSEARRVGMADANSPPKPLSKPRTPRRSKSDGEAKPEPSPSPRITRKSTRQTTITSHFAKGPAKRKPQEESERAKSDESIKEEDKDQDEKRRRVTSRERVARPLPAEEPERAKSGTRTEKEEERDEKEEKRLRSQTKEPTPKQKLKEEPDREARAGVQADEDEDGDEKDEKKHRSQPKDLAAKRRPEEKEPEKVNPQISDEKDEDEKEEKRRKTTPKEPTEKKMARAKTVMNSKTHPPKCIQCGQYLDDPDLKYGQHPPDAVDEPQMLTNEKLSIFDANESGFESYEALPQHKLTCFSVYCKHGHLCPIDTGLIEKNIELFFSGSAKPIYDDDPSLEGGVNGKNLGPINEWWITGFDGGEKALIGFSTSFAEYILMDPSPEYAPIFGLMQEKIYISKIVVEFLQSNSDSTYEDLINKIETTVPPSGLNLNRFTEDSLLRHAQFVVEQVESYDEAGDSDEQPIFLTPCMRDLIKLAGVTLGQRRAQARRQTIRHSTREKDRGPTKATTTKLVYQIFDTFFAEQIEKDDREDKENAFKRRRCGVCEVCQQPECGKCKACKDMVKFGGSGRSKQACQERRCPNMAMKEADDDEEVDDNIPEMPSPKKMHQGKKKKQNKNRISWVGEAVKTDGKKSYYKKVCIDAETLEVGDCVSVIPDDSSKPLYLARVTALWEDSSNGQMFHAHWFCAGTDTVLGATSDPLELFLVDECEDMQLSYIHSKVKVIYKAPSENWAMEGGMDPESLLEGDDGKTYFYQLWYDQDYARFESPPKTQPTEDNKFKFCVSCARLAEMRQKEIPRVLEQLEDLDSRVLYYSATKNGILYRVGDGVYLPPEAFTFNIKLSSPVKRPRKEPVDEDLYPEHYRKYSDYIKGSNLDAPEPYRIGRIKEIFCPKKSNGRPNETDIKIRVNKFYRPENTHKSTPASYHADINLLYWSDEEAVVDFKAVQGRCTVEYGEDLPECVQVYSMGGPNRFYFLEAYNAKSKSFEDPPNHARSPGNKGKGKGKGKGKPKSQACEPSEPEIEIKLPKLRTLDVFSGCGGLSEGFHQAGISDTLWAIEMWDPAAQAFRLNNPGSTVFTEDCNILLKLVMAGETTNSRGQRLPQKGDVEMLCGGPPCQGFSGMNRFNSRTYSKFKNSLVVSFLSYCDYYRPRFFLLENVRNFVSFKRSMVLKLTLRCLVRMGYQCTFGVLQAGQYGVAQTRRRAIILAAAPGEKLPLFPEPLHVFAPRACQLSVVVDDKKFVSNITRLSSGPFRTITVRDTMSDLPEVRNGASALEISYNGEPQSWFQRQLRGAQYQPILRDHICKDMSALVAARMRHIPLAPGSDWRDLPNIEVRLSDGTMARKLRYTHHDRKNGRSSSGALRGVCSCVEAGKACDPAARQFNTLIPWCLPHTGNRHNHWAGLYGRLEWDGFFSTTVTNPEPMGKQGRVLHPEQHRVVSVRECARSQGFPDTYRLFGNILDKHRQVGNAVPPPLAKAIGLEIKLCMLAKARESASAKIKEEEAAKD

[18] = Counterscreen for activators of the function of SWI/SNF related, matrix associated, actin dependent regulator of chromatin, subfamily a, member 2 (SMARCA2, BRM): Luminescence-based cell-based high throughput dose response assay to identify non-selective compounds using the VP16 reporter assay.; format: functional
HEK293 [19] = experiment: cells; conditions: Homo sapiens
[20] = molecular target: E3 ubiquitin-protein ligase UHRF1 (Homo sapiens, UniProt Q96T88); experiment: Counterscreen for inhibitors of 5-meCpG-binding domain protein 2 (MBD2): TRFRET-based biochemical high throughput dose response assay to identify inhibitors of binding of ubiquitin-like with PHD and ring finger domains 1 (UHRF1) to methylated oligonucleotide.
E3 ubiquitin-protein ligase UHRF1, sequence (Q96T88 whole entry, the tested form may be a part): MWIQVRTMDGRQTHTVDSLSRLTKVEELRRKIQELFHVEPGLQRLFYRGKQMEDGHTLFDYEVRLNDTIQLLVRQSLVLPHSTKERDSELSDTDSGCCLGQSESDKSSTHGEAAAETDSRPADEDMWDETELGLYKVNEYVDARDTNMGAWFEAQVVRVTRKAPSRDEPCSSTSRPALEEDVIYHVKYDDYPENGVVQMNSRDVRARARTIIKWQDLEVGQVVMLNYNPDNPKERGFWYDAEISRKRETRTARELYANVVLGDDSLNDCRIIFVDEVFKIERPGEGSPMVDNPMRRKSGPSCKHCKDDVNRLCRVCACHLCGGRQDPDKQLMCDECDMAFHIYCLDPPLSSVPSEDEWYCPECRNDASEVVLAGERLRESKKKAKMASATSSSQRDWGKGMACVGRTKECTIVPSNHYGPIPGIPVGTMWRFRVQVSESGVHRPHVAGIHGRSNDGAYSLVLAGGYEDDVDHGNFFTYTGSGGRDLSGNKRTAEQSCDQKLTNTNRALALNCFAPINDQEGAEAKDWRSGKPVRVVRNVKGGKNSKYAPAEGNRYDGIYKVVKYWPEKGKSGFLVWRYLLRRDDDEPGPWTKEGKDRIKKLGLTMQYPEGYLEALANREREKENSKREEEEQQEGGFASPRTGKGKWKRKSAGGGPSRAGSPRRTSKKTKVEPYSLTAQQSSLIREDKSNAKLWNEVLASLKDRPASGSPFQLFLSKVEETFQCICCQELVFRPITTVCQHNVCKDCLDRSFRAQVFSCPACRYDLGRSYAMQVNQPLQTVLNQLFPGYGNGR

[21] = molecular target: SWI/SNF-related matrix-associated actin-dependent regulator of chromatin subfamily A member 2 (Homo sapiens, UniProt P51531); experiment: Luminescence-based cell-based high throughput dose response assay to identify activators of the function of SWI/SNF related, matrix associated, actin dependent regulator of chromatin, subfamily a, member 2 (SMARCA2, BRM).; format: functional
SWI/SNF-related matrix-associated actin-dependent regulator of chromatin subfamily A member 2, sequence (P51531 whole entry): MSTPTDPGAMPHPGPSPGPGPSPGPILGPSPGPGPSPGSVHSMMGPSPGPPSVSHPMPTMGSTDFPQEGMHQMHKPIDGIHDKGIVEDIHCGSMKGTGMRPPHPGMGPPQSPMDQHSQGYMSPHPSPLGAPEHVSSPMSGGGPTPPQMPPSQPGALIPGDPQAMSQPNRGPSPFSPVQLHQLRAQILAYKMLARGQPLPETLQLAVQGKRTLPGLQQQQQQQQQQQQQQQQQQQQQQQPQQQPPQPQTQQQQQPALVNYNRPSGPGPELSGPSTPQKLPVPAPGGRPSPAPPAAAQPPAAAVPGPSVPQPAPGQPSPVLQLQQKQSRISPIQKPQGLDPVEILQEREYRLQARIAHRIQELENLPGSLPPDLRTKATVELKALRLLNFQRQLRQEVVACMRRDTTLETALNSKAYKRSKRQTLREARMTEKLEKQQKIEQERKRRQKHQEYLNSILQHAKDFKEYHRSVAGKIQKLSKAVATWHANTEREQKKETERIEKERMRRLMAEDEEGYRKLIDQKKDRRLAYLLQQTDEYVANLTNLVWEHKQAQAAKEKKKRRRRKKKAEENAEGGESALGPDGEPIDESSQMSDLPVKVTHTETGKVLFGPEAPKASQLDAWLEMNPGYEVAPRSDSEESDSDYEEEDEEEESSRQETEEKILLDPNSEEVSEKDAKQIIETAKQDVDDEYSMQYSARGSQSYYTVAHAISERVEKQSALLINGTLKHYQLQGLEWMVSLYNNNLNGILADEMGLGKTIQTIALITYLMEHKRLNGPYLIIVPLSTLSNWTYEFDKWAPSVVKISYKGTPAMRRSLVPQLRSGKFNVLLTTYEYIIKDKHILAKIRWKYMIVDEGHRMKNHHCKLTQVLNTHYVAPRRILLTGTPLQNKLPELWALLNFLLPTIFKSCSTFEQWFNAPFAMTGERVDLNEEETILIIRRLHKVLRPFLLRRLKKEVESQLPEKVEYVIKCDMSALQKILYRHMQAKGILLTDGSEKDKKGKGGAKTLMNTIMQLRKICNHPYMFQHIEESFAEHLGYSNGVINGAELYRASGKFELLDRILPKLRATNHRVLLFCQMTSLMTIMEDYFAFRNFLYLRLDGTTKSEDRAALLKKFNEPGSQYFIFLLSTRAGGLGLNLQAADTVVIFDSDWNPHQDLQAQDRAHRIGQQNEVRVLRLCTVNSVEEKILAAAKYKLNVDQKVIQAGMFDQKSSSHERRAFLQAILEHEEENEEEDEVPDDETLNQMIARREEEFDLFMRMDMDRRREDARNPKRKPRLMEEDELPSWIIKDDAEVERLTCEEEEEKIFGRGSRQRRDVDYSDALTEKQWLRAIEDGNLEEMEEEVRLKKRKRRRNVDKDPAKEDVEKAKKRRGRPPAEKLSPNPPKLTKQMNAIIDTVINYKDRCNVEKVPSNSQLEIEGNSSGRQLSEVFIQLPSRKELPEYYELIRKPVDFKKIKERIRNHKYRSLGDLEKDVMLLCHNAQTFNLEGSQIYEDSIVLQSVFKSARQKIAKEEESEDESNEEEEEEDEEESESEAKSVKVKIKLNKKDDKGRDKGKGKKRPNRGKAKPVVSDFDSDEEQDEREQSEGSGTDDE

[22] = molecular target: T1, DNA repair protein RAD52 homolog (Homo sapiens, UniProt P43351); format: functional, biochemical
T1 sequence (P43351 whole entry): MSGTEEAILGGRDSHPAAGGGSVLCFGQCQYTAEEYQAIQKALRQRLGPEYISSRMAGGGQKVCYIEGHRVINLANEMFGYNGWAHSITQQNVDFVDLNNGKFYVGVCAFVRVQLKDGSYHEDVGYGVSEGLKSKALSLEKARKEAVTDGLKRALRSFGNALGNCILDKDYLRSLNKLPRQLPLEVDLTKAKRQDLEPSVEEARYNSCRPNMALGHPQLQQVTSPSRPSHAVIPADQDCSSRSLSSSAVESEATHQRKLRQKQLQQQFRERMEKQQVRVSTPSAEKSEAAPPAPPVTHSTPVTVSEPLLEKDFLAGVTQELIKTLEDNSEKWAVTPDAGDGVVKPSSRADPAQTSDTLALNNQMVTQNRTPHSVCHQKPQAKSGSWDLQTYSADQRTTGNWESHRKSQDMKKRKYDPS

HEK293 [23] = experiment: cells; conditions: Homo sapiens; remark: listed apart in the source
Escherichia coli [24] = experiment: microbe, parasite or virus in culture
Escherichia coli [25] = experiment: microbe, parasite or virus in culture; remark: listed apart in the source

With `Oc1nc(S)nnc1Cc1ccc(Cl)c(Cl)c1` the EC50 [1] was > 160 µM (inactive), the EC50 [2] was > 180 µM (inactive) and the EC50 [3] was 0.241 µM (active). The EC50 [4] was > 160 µM (inactive).
For `O=C(c1ccc(F)cc1)N1CCN(c2ccnc3cc(Cl)ccc23)CC1`, the AC50 (Candida albicans [5]) was 1.33 µM (active), the AC50 (Candida albicans [6]) was 0.57 µM (active) and the AC50 (Candida albicans [7]) was > 260 µM (inactive). The AC50 (Candida albicans [8]) was 1.19 µM (active) and the AC50 (Candida albicans [9]) was 3.2 µM (active).
For `Cc1ccc2cc(C(c3nnnn3Cc3ccccc3)N3CCc4ccccc43)c(O)nc2c1` (stereo unspecified), the EC50 [10] was > 92.5 µM (inactive), the EC50 [11] was > 92.5 µM (inactive) and the EC50 (Mu-type opioid receptor) was > 92.5 µM (inactive).
With `Cc1ccc(-n2c(N)c(C#N)c(-c3ccc(Cl)cc3)c(C#N)c2=O)cc1` the EC50 [12] was > 112 µM (not active), the EC50 [13] was 4.94 µM (active) and the AC50 [14] was 14.3 µM (active). The EC50 [15] was 0.623 µM (active) and the EC50 [16] was < 3 µM (active).
In the case of `c1ccc2c(c1)C1=NCCN1c1ccccc1-2`, the IC50 [17] is reported as 9.24 µM (active), the EC50 [18] is reported as > 91.3 µM (inactive) and the EC50 (HEK293 [19]) is reported as > 59.8 µM (inactive). The IC50 [20] was 37 µM (inactive), the EC50 [21] was > 3.38 µM (active) and the AC50 [22] was 5.19 µM (active). The EC50 (HEK293 [23]) was > 59.8 µM (inactive).
In the case of `O=S(=O)(c1ccccc1)c1cnc(-c2cccnc2)nc1-c1ccc(Cl)cc1Cl`, the AC50 (Escherichia coli [24]) is reported as 150 µM (active) and the AC50 (Escherichia coli [25]) is reported as 224 µM (active).
